Experimental data published in PMC5672791 (Journal of medicinal chemistry, 2015).
“Also recorded” adds a separate entry of the source. Where two headings read alike, the source gives them in different places. Where a SMILES comes first, the peptide text is derived from it. Bridges are numbered along the chain shown (N, C = ends). Where no end group is shown, it is not given here. [ ]: non-standard residue; d: D form. Bip = N[C@@H](Cc1ccc(-c2ccccc2)cc1)C(=O)O

Assays:
mMC5R [1] = target: T1, mMC5R (Mus musculus, UniProt P41149); settings: read-out: mMC5R Agonist EC50; previously reported values; cited from earlier work
mMC1R [2] = target: T2, mMC1R (Mus musculus, UniProt Q01727); settings: read-out: mMC1R Agonist EC50; previously reported values; cited from earlier work
MC4R = settings: cited from earlier work
mMC4R [3] = target: T3, mMC4R (Mus musculus, UniProt P56450); settings: cited from earlier work; for Ki: read-out: mMC4R Ki, Ki=10^-pA2, previously reported values
mMC3R [4] = target: T4, mMC3R (Mus musculus, UniProt P33033); settings: cited from earlier work
mMC3R [5] = target: T4, mMC3R; assay type: cell-based
mMC1R [6] = target: T2, mMC1R; assay: cAMP based β-galactosidase reporter assay, agonist activity at mMC1R; assay type: cell-based
mMC4R [7] = target: T3, mMC4R; assay type: cell-based
mMC5R [8] = target: T1, mMC5R; assay: cAMP based β-galactosidase reporter assay, agonist activity at mMC5R; assay type: cell-based; settings: read-out: mMC5R Agonist EC50; HEK-293 cells, CRE/β-galactosidase reporter; mean ± SEM
mMC3R (Mus musculus) = mMC3R (Mus musculus) (UniProt P33033); assay: Schild analysis; settings: cited from earlier work
mMC4R (Mus musculus) = mMC4R (Mus musculus) (UniProt P56450); assay: Schild analysis; settings: cited from earlier work
hMC3R = settings: cited from earlier work
hMC4R = settings: cited from earlier work
mMC4R F176K = settings: mutation F176K; cited from earlier work
[9] = system: mMC4R mutations (E92K, F253S); settings: cited from earlier work
mMC3R [10] = target: T4, mMC3R; assay: cAMP based β-galactosidase reporter assay; assay type: cell-based; settings: Figure 1
mMC3R [11] = target: T5, mMC3R (Mus musculus, UniProt P33033); assay: Schild analysis
T5 chain: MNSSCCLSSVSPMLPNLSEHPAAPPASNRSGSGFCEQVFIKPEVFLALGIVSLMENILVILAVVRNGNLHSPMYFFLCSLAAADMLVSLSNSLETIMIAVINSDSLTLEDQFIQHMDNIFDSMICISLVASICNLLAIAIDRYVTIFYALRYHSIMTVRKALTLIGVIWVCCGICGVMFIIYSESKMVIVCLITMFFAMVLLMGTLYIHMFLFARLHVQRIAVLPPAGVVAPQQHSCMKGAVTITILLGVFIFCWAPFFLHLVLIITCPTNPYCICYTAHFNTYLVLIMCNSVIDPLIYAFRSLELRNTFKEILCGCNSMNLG

mMC4R [12] = target: T6, mMC4R (Mus musculus, UniProt P56450); assay: Schild analysis
T6 chain: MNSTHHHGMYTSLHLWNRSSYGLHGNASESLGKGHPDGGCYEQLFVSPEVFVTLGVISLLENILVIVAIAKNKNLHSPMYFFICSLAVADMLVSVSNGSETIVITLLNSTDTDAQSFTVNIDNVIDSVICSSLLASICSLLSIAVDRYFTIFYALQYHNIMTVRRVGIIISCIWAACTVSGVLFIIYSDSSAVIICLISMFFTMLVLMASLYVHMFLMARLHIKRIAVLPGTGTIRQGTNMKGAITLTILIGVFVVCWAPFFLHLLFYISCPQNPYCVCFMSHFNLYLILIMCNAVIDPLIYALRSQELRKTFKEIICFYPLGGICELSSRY

[13] = Schild analysis, agonist MTII, mean ± SEM

T1 sequence (P41149 whole entry): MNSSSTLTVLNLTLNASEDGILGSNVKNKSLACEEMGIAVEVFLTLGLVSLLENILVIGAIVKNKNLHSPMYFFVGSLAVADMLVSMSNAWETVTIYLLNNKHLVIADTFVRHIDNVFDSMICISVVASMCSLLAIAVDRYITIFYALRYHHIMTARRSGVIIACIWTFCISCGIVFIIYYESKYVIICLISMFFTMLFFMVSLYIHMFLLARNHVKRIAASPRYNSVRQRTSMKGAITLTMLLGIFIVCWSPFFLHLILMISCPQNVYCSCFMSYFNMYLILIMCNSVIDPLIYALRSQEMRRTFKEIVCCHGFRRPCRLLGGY
T2 sequence (Q01727 whole entry): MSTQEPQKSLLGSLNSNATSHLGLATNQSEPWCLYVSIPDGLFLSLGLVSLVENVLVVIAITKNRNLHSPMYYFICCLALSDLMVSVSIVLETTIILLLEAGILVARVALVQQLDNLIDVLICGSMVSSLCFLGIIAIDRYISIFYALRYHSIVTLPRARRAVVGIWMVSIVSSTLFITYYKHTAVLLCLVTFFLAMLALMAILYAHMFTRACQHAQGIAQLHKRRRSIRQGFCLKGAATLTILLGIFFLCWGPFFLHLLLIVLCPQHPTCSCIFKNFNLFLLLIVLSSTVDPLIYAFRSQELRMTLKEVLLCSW

miniAGRP (87-120): engineered minimized derivative of AGRP(87-132) with 4 disulfide bonds and the C-terminal 12 residues removed (CVRLHESCLGQQVPCCDPAATCYCRFFNAFCYCR)
EC50 (mMC5R [1]): > 100000 nM | EC50 (mMC1R [2]): > 100000 nM

HS024
selectivity for the MC4R compared to the MC3R (MC4R): approximately 20 fold

TAYCRFFNAFCYAR-NH2 (disulfide 4-11) [hAGRP(107-120)]
mMC4R antagonist pA2 (mMC4R [3]): 6.6 | mMC3R antagonist pA2 (mMC3R [4]): 6.1

C[C@@H]1NC(=O)[C@H](CC(N)=O)NC(=O)[C@H](c2ccccc2)NC(=O)[C@H](Cc2ccccc2)NC(=O)[C@H](CCCNC(=N)N)NC(=O)[C@@H]2CCCN2C(=O)[C@H]2CCCN2C(=O)[C@H](Cc2ccccc2)NC1=O [Peptide 16, c[Pro-Arg-Phe-Phg-Asn-Ala-Phe-DPro]]
no activity at the mMC3R up to (concentration) (mMC3R [5]): > 100 µM | fold decreased potency at the mMC1R compared to 6 (mMC1R [6]): 4 fold | fold decreased antagonist potency at the mMC4R compared to 6 (mMC4R [7]): 65 fold

C[C@@H]1NC(=O)[C@H](CC(N)=O)NC(=O)[C@H](Cc2ccccc2)NC(=O)[C@H](Cc2ccccc2)NC(=O)[C@H](CCCNC(=N)N)NC(=O)[C@H]([C@@H](C)O)NC(=O)[C@H](Cc2ccc(O)cc2)NC(=O)[C@@H]2CCCN2C(=O)[C@H]2CCCN2C(=O)[C@H](Cc2ccc(O)cc2)NC(=O)[C@H]([C@@H](C)O)NC(=O)[C@H](Cc2ccccc2)NC1=O [Peptide 5] (cyclo(YTRFFNAFTY[dP]P))
Ki (mMC4R [7]): 160 nM | EC50 (mMC5R [8]): > 100000 nM

C[C@@H]1NC(=O)[C@H](CC(N)=O)NC(=O)[C@H](Cc2ccccc2)NC(=O)[C@H](Cc2ccc(-c3ccccc3)cc2)NC(=O)[C@H](CCCNC(=N)N)NC(=O)[C@@H]2CCCN2C(=O)[C@H]2CCCN2C(=O)[C@H](Cc2ccccc2)NC1=O [Peptide 7, c[Pro-Arg-Bip-Phe-Asn-Ala-Phe-DPro]] (cyclo(R[Bip]FNAF[dP]P))
fold more potent agonist at the mMC1R compared to 6 (mMC1R [6]): 5 fold | fold decreased antagonist potency at the mMC4R compared to 6 (mMC4R [7]): 8 fold

hAGRP(87-132) 87-132 (from UniProt O00253)
Ki (mMC3R (Mus musculus)): 1.3 nM | Ki (mMC4R (Mus musculus)): 0.4 nM

hAGRP (87–132): C-terminal domain of human Agouti-related protein, stabilized by five disulfide bonds
mMC4R antagonist pA2 (mMC4R [3]): 9.4 | mMC4R antagonist pA2 (mMC4R [3]; previously reported values): 9.4±1.0 | Ki (mMC4R [3]): 0.4 nM | mMC3R antagonist pA2 (mMC3R [4]): 8.9 | mMC3R antagonist pA2 (mMC3R [4]; previously reported values): 8.9±0.2 | EC50 (mMC5R [1]): > 100000 nM | EC50 (mMC1R [2]): > 100000 nM

C[C@@H]1NC(=O)[C@H](CC(N)=O)NC(=O)[C@H](Cc2ccc(-c3ccccc3)cc2)NC(=O)[C@H](Cc2ccccc2)NC(=O)[C@H](CCCNC(=N)N)NC(=O)[C@@H]2CCCN2C(=O)[C@H]2CCCN2C(=O)[C@H](Cc2ccccc2)NC1=O [Peptide 14, c[Pro-Arg-Phe-Bip-Asn-Ala-Phe-DPro]]
no activity at the mMC3R up to (concentration) (mMC3R [5]): > 100 µM | fold more potent agonist at the mMC1R compared to 6 (mMC1R [6]): 10 fold | fold decreased antagonist potency at the mMC4R compared to 6 (mMC4R [7]): 8 fold

C[C@@H]1NC(=O)[C@H](Cc2ccccc2)NC(=O)[C@H](C)NC(=O)[C@H](CC(N)=O)NC(=O)[C@H](Cc2ccccc2)NC(=O)[C@H](Cc2ccccc2)NC(=O)[C@H](CCCNC(=N)N)NC(=O)[C@H](C)NC(=O)[C@H](Cc2ccc(O)cc2)NC(=O)[C@@H]2CCCN2C(=O)[C@H]2CCCN2C(=O)[C@H](Cc2ccc(O)cc2)NC1=O [Peptide 4]
no activity at the mMC3R up to (concentration) (mMC3R [5]): > 100 µM | mMC3R antagonist pA2 (mMC3R [5]; [13]): >100,000 | no activity at the mMC4R up to (concentration) (mMC4R [7]): > 100 µM | mMC4R antagonist pA2 (mMC4R [7]; [13]): >100,000 | EC50 (mMC5R [8]): > 100000 nM

Ac-c[Cys-Arg-Phe-Phe-Asn-Ala-Phe-Cys]-NH2 [AGRP(110-117)]
binding affinity at the hMC3R (hMC3R): no detectable binding | fold lower hMC4R binding affinity than AGRP(83-132) (hMC4R; compared to C-terminal AGRP(83-132)): approximately 36 fold | IC50 (hMC4R; read-out: IC50 binding affinity at the hMC4R): 127 nM

Tyr-c[Cys-Arg-Phe-Phe-Asn-Ala-Phe-Cys]-Tyr (YCRFFNAFCY; bridge 2-9; not fully specified (bridges)) [hAGRP (109-118)]
Ki (mMC4R [3]): 160 nM | EC50 (mMC5R [1]): > 100000 nM | EC50 (mMC1R [2]): 5100 ± 3000 nM

AGRP(83-132): C-terminal AGRP(83-132) peptide (SSRRCVRLHESCLGQQVPCCDPCATCYCRFFNAFCYCRKLGTAMNPCSRT; UniProt O00253 83-132, looked up, fragment)
loss of antagonist potency at mMC4R F176K (mMC4R F176K): complete loss of activity | binding to mMC4R mutations E92K, F253S [9]: unable to bind

miniAGRP(87-120) 87-120 (from UniProt O00253)
Ki (mMC3R (Mus musculus)): 7.9 nM | Ki (mMC4R (Mus musculus)): 3.2 nM

C[C@@H]1NC(=O)[C@H](CC(N)=O)NC(=O)[C@H](Cc2ccccc2)NC(=O)[C@H](Cc2ccccc2)NC(=O)[C@H](CCCNC(=N)N)NC(=O)[C@@H]2CCCN2C(=O)[C@H]2CCCN2C(=O)[C@H](Cc2ccccc2)NC1=O [Peptide 6, c[Pro-Arg-Phe-Phe-Asn-Ala-Phe-DPro]]
partial agonist activity at the mMC3R (mMC3R [10]): lack of agonist activity; also recorded: without any partial agonist activity

C[C@@H]1NC(=O)[C@H](CN)NC(=O)[C@H](Cc2ccccc2)NC(=O)[C@H](Cc2ccccc2)NC(=O)[C@H](CCCNC(=N)N)NC(=O)[C@@H]2CCCN2C(=O)[C@H]2CCCN2C(=O)[C@H](Cc2ccccc2)NC1=O [Peptide 22, c[Pro-Arg-Phe-Phe-Dap-Ala-Phe-DPro]]
partial agonist activity at the mMC3R (mMC3R [10]): did not result in partial agonist activity

B1: peptide 5 (peptide)
chain: cyclo(PYTRFFNAFTY[dP])
SMILES: C[C@@H]1NC(=O)[C@H](CC(N)=O)NC(=O)[C@H](Cc2ccccc2)NC(=O)[C@H](Cc2ccccc2)NC(=O)[C@H](CCCNC(=N)N)NC(=O)[C@H]([C@@H](C)O)NC(=O)[C@H](Cc2ccc(O)cc2)NC(=O)[C@@H]2CCCN2C(=O)[C@H]2CCCN2C(=O)[C@H](Cc2ccc(O)cc2)NC(=O)[C@H]([C@@H](C)O)NC(=O)[C@H](Cc2ccccc2)NC1=O
Ki (mMC3R [11]): 1300 nM

cyclo(PRFFGAF[dP]) [peptide 21]
Ki (mMC4R [12]): 4 nM

cyclo(PRFFKAF[dP]) [peptide 25]
Ki (mMC4R [12]): 5 nM | Ki (mMC3R [11]): 100 nM

cyclo(PRFFRAF[dP]) [peptide 26]
Ki (mMC4R [12]): 4 nM | Ki (mMC3R [11]): 200 nM
